Laboratory results taken from US20250215012A1, “IKZF2 DEGRADERS AND USES THEREOF” (REGENTS OF THE UNIVERSITY OF MICHIGAN, priority 2022, published 2025).

Molecular target: IKZF2 (Homo sapiens (Human), UniProt Q96SW2+Q9UKS7)
Assay: IKZF2 HiBiT Assay (Jurkat-IKZF2-HiBiT cell line)
Type: cell-based
Details: Jurkat-IKZF2-HiBiT cells, 24 hours; for DC50: read-out: HiBit assay degradation analysis DC50; for Dmax: read-out: HiBit assay degradation analysis Dmax
Summary of the method: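 IKZF2 degradation was assessed as HiBiT luminescence in Jurkat-IKZF2-HiBiT cells, using lytic detection after 24 h of compound treatment at 37 °C, 5% CO2.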

Chain of IKZF2 (Q9UKS7 whole entry): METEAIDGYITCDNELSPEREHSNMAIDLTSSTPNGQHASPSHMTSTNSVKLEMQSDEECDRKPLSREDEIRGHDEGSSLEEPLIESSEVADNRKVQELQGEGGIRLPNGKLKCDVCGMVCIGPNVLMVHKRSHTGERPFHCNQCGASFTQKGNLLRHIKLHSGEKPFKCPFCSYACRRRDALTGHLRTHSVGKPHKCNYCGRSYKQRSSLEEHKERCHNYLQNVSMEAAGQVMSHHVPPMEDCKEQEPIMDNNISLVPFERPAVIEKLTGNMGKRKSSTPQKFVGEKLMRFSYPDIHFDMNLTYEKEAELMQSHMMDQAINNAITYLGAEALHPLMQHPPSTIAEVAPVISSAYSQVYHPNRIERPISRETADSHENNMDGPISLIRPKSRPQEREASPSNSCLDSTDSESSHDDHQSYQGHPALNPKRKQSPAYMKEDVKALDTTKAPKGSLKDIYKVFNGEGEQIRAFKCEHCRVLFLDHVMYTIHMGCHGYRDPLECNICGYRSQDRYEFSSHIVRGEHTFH
Chain of IKZF2 (Q96SW2 whole entry): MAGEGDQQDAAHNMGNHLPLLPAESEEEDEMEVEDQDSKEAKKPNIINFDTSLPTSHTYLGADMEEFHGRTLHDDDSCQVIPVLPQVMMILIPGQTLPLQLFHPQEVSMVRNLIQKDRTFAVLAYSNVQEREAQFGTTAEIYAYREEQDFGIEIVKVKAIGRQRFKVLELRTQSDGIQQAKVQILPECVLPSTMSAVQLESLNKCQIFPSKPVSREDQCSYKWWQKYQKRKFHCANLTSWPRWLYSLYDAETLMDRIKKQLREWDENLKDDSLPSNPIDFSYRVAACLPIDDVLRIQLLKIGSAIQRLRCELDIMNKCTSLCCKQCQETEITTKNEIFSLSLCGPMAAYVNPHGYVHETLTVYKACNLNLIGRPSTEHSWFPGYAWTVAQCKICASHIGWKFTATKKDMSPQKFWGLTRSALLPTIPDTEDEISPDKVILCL
Chain of IKZF2 (Q16531 whole entry partner): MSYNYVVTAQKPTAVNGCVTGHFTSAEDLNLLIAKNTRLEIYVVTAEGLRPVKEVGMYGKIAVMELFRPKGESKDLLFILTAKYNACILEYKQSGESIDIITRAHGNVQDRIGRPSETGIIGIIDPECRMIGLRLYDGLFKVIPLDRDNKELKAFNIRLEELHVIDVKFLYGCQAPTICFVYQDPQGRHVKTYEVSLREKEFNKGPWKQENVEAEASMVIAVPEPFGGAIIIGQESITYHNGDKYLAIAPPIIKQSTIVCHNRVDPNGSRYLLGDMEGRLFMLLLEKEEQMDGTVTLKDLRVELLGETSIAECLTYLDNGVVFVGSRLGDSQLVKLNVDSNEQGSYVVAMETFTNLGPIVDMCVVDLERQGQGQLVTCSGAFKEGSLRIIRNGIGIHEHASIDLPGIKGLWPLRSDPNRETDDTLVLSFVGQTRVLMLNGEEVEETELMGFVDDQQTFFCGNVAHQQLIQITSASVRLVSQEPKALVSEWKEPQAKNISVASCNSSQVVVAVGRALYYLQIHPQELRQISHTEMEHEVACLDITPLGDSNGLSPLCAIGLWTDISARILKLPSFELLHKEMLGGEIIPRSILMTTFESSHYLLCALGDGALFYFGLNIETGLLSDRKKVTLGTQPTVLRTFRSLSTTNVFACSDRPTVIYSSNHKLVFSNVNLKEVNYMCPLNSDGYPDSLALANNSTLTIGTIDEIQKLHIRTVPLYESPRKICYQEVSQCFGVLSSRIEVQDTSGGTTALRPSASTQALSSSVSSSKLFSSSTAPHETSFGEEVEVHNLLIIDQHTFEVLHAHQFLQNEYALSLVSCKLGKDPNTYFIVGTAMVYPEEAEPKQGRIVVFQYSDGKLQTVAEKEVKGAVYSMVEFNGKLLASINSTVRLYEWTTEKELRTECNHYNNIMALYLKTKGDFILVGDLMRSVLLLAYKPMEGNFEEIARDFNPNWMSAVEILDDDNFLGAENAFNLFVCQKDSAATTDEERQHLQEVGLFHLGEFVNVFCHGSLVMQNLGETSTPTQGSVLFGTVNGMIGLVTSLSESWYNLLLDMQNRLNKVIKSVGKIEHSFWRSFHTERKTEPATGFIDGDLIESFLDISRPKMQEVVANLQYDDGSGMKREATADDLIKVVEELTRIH

## O=C1CCC(N2Cc3c(ccc4c3OCC43CCN(Cc4ccn(-c5ccc(Cl)cc5)n4)CC3)C2=O)C(=O)N1 (stereo not shown) [Compound A243, 3-(1′-((1-(4-chlorophenyl)-1H-pyrazol-3-yl)methyl)-6-oxo-6,8-dihydro-2H,7H-spiro[furo[2,3-e]isoindole-3,4′-piperidin]-7-yl)piperidine-2,6-dione]
  DC50: 50 to 200 nM
  Dmax: 60 to 80%

## O=C1CCC(N2Cc3c(ccc4c3OCC43CCN(Cc4cnn5c4CCC5)CC3)C2=O)C(=O)N1 (stereo not shown) [Compound A244, 3-(1′-((5,6-dihydro-4H-pyrrolo[1,2-b]pyrazol-3-yl)methyl)-6-oxo-6,8-dihydro-2H,7H-spiro[furo[2,3-e]isoindole-3,4′-piperidin]-7-yl)piperidine-2,6-dione]
  DC50: 200 to 500 nM
  Dmax: 60 to 80%

## O=C1CCC(N2Cc3c(ccc4c3OCC43CCN(Cc4cnn5c4CCCC5)CC3)C2=O)C(=O)N1 (stereo not shown) [Compound A245, 3-(6-oxo-1′-((4,5,6,7-tetrahydropyrazolo[1,5-a]pyridin-3-yl)methyl)-6,8-dihydro-2H,7H-spiro[furo[2,3-e]isoindole-3,4′-piperidin]-7-yl)piperidine-2,6-dione]
  DC50: 200 to 500 nM
  Dmax: 40 to 60%

## O=C1CCC(N2Cc3c(ccc4c3OCC43CCN(Cc4ccnn4-c4ccccc4)CC3)C2=O)C(=O)N1 (stereo not shown) [Compound A246, 3-(6-oxo-1′-((1-phenyl-1H-pyrazol-5-yl)methyl)-6,8-dihydro-2H,7H-spiro[furo[2,3-e]isoindole-3,4′-piperidin]-7-yl)piperidine-2,6-dione]
  DC50: > 500 nM
  Dmax: < 40%

## CCOc1cc(CN2CCC3(CC2)COc2c3ccc3c2CN(C2CCC(=O)NC2=O)C3=O)ccn1 (stereo not shown) [Compound A247, 3-(1′-((2-ethoxypyridin-4-yl)methyl)-6-oxo-6,8-dihydro-2H,7H-spiro[furo[2,3-e]isoindole-3,4′-piperidin]-7-yl)piperidine-2,6-dione]
  DC50: > 500 nM
  Dmax: < 40%

## O=C1CCC(N2Cc3c(ccc4c3OCC43CCN(Cc4cncc(Cl)c4)CC3)C2=O)C(=O)N1 (stereo not shown) [Compound A248, 3-(1′-((5-chloropyridin-3-yl)methyl)-6-oxo-6,8-dihydro-2H,7H-spiro[furo[2,3-e]isoindole-3,4′-piperidin]-7-yl)piperidine-2,6-dione]
  DC50: > 500 nM
  Dmax: < 40%

## O=C1CCC(N2Cc3c(ccc4c3OCC43CCN(Cc4cccnc4Cl)CC3)C2=O)C(=O)N1 (stereo not shown) [Compound A249, 3-(1′-((2-chloropyridin-3-yl)methyl)-6-oxo-6,8-dihydro-2H,7H-spiro[furo[2,3-e]isoindole-3,4′-piperidin]-7-yl)piperidine-2,6-dione]
  DC50: > 500 nM
  Dmax: < 40%

## O=C1CCC(N2Cc3c(ccc4c3OCC43CCN(Cc4ccnc(Cl)c4)CC3)C2=O)C(=O)N1 (stereo not shown) [Compound A250, 3-(1′-((2-chloropyridin-4-yl)methyl)-6-oxo-6,8-dihydro-2H,7H-spiro[furo[2,3-e]isoindole-3,4′-piperidin]-7-yl)piperidine-2,6-dione]
  DC50: > 500 nM
  Dmax: < 40%

## O=C1CCC(N2Cc3c(ccc4c3OCC43CCN(Cc4ccn(-c5ccccc5)n4)CC3)C2=O)C(=O)N1 (stereo not shown) [Compound A251, 3-(6-oxo-1′-((1-phenyl-1H-pyrazol-3-yl)methyl)-6,8-dihydro-2H,7H-spiro[furo[2,3-e]isoindole-3,4′-piperidin]-7-yl)piperidine-2,6-dione]
  DC50: > 500 nM
  Dmax: < 40%

## CCOc1cccc(CN2CCC3(CC2)COc2c3ccc3c2CN(C2CCC(=O)NC2=O)C3=O)n1 (stereo not shown) [Compound A252, 3-(1′-((6-ethoxypyridin-2-yl)methyl)-6-oxo-6,8-dihydro-2H,7H-spiro[furo[2,3-e]isoindole-3,4′-piperidin]-7-yl)piperidine-2,6-dione]
  DC50: > 500 nM
  Dmax: < 40%

## O=C1CCC(N2Cc3c(ccc4c3OCC43CCN(Cc4nncn4-c4ccccc4)CC3)C2=O)C(=O)N1 (stereo not shown) [Compound A253, 3-(6-oxo-1′-((4-phenyl-4H-1,2,4-triazol-3-yl)methyl)-6,8-dihydro-2H,7H-spiro[furo[2,3-e]isoindole-3,4′-piperidin]-7-yl)piperidine-2,6-dione]
  DC50: > 500 nM
  Dmax: < 40%

## O=C1CCC(N2Cc3c(ccc4c3OCC43CCN(Cc4ncnn4-c4ccccc4)CC3)C2=O)C(=O)N1 (stereo not shown) [Compound A254, 3-(6-oxo-1′-((1-phenyl-1H-1,2,4-triazol-5-yl)methyl)-6,8-dihydro-2H,7H-spiro[furo[2,3-e]isoindole-3,4′-piperidin]-7-yl)piperidine-2,6-dione]
  DC50: > 500 nM
  Dmax: < 40%

## O=C1CCC(N2Cc3c(ccc4c3OCC43CCN(Cc4ccnn4C4CCOCC4)CC3)C2=O)C(=O)N1 (stereo not shown) [Compound A255, 3-(6-oxo-1′-((1-(tetrahydro-2H-pyran-4-yl)-1H-pyrazol-5-yl)methyl)-6,8-dihydro-2H,7H-spiro[furo[2,3-e]isoindole-3,4′-piperidin]-7-yl)piperidine-2,6-dione]
  DC50: > 500 nM
  Dmax: < 40%

## Cn1cc(CN2CCC3(CC2)COc2c3ccc3c2CN(C2CCC(=O)NC2=O)C3=O)c(-c2ccccc2)n1 (stereo not shown) [Compound A256, 3-(1′-((1-methyl-3-phenyl-1H-pyrazol-4-yl)methyl)-6-oxo-6,8-dihydro-2H,7H-spiro[furo[2,3-e]isoindole-3,4′-piperidin]-7-yl)piperidine-2,6-dione]
  DC50: > 500 nM
  Dmax: < 40%

## Cn1cc(CN2CCC3(CC2)COc2c3ccc3c2CN(C2CCC(=O)NC2=O)C3=O)c(Cl)n1 (stereo not shown) [Compound A257, 3-(1′-((3-chloro-1-methyl-1H-pyrazol-4-yl)methyl)-6-oxo-6,8-dihydro-2H,7H-spiro[furo[2,3-e]isoindole-3,4′-piperidin]-7-yl)piperidine-2,6-dione]
  DC50: > 500 nM
  Dmax: < 40%

## Cn1cc(-c2cccc(CN3CCC4(CC3)OCc3c4ccc4c3CN(C3CCC(=O)NC3=O)C4=O)c2)cn1 (stereo not shown) [Compound A259, 3-(1′-(3-(1-methyl-1H-pyrazol-4-yl)benzyl)-6-oxo-6,8-dihydrospiro[furo[3,4-e]isoindoline-3,4′-piperidin]-7(1H)-yl)piperidine-2,6-dione]
  DC50: > 500 nM
  Dmax: 40 to 60%

## O=C1CCC(N2Cc3c(ccc4c3COC43CCN(Cc4cccc(-c5cc[nH]n5)c4)CC3)C2=O)C(=O)N1 (stereo not shown) [Compound A260, 3-(1′-(3-(1H-pyrazol-3-yl)benzyl)-6-oxo-6,8-dihydrospiro[furo[3,4-e]isoindoline-3,4′-piperidin]-7(1H)-yl)piperidine-2,6-dione]
  DC50: > 500 nM
  Dmax: 40 to 60%

## O=C1CCC(N2Cc3c(ccc4c3OCC43CCN(Cc4cccc(NS(=O)(=O)c5ccccc5)c4)CC3)C2=O)C(=O)N1 (stereo not shown) [Compound A261, N-(3-((7-(2,6-dioxopiperidin-3-yl)-6-oxo-7,8-dihydro-2H,6H-spiro[furo[2,3-e]isoindole-3,4′-piperidin]-1′-yl)methyl)phenyl)benzenesulfonamide]
  DC50: > 500 nM
  Dmax: < 40%

## COc1ccc(C(=O)Nc2cccc(CN3CCC4(CC3)OCc3c4ccc4c3CN(C3CCC(=O)NC3=O)C4=O)c2)cc1 (stereo not shown) [Compound A262]
  DC50: < 50 nM
  Dmax: 60 to 80%

## Cc1ccc(C(=O)Nc2cccc(CN3CCC4(CC3)OCc3c4ccc4c3CN(C3CCC(=O)NC3=O)C4=O)c2)cc1 (stereo not shown) [Compound A263, N-(3-((7-(2,6-dioxopiperidin-3-yl)-6-oxo-1,6,7,8-tetrahydrospiro[furo[3,4-e]isoindole-3,4′-piperidin]-1′-yl)methyl)phenyl)-4-methylbenzamide]
  DC50: < 50 nM
  Dmax: 60 to 80%

## O=C1CC[C@H](N2Cc3c(ccc4c3OCC43CCN(Cc4cccc(-c5cnn(C6COC6)c5)c4)CC3)C2=O)C(=O)N1 [Compound A265, (S)-3-(1′-(3-(1-(oxetan-3-yl)-1H-pyrazol-4-yl)benzyl)-6-oxo-6,8-dihydro-2H,7H-spiro[furo[2,3-e]isoindole-3,4′-piperidin]-7-yl)piperidine-2,6-dione]
  DC50: < 50 nM
  Dmax: 60 to 80%

## Cn1ccc(-c2cccc(CN3CCC4(CC3)COc3c4ccc4c3CN([C@H]3CCC(=O)NC3=O)C4=O)c2)n1 [Compound A267, (S)-3-(1′-(3-(1-methyl-1H-pyrazol-3-yl)benzyl)-6-oxo-6,8-dihydro-2H,7H-spiro[furo[2,3-e]isoindole-3,4′-piperidin]-7-yl)piperidine-2,6-dione]
  DC50: < 50 nM
  Dmax: 60 to 80%

## O=C1CC[C@H](N2Cc3c(ccc4c3OCC43CCN(Cc4cccc(-c5cnn(C6CC6)c5)c4)CC3)C2=O)C(=O)N1 [Compound A268, (S)-3-(1′-(3-(1-cyclopropyl-1H-pyrazol-4-yl)benzyl)-6-oxo-6,8-dihydro-2H,7H-spiro[furo[2,3-e]isoindole-3,4′-piperidin]-7-yl)piperidine-2,6-dione]
  DC50: < 50 nM
  Dmax: 60 to 80%

## O=C1CC[C@H](N2Cc3c(ccc4c3OCC43CCN(Cc4cccc(-c5cnn([C@H]6CCOC6)c5)c4)CC3)C2=O)C(=O)N1 [Compound A269, (S)-3-(6-oxo-1′-(3-(1-((S)-tetrahydrofuran-3-yl)-1H-pyrazol-4-yl)benzyl)-6,8-dihydro-2H,7H-spiro[furo[2,3-e]isoindole-3,4′-piperidin]-7-yl)piperidine-2,6-dione]
  DC50: 50 to 200 nM
  Dmax: 60 to 80%

## O=C1CC[C@H](N2Cc3c(ccc4c3OCC43CCN(Cc4cccc(-c5cnn([C@@H]6CCOC6)c5)c4)CC3)C2=O)C(=O)N1 [Compound A270, (S)-3-(6-oxo-1′-(3-(1-((R)-tetrahydrofuran-3-yl)-1H-pyrazol-4-yl)benzyl)-6,8-dihydro-2H,7H-spiro[furo[2,3-e]isoindole-3,4′-piperidin]-7-yl)piperidine-2,6-dione]
  DC50: < 50 nM
  Dmax: 60 to 80%

## O=C1CC[C@H](N2Cc3c(ccc4c3OCC43CCN(Cc4cccc(-c5cnn(CC6COC6)c5)c4)CC3)C2=O)C(=O)N1 [Compound A271, (S)-3-(1′-(3-(1-(oxetan-3-ylmethyl)-1H-pyrazol-4-yl)benzyl)-6-oxo-6,8-dihydro-2H,7H-spiro[furo[2,3-e]isoindole-3,4′-piperidin]-7-yl)piperidine-2,6-dione]
  DC50: > 500 nM
  Dmax: < 40%
